Measured values as given in PMC10355216, “The C-terminal tail of CSNAP attenuates the CSN complex” (Life Science Alliance, 2023).
Where no end group is shown, it is not given here. [ ]: non-standard residue; d: D form. Aib = CC(C)(N)C(=O)O

Assays:
[1] = test system: recombinant CSN complex; assay: Peptide array screen of C-CSNAP peptides with recombinant CSN (rCSN^WT); format: binding; details: for Average fold change, intensities as fold of C-CSNAP (A1): rCSN^WT on INTAVIS Celluspots array, anti-CSN3 and HRP secondary antibody, average of six replicates (three independent experiments in duplicates); for intensities as fold of C-CSNAP (A1), Experiment #1 left / intensities as fold of C-CSNAP (A1), Experiment #1 right / intensities as fold of C-CSNAP (A1), Experiment #2 left / intensities as fold of C-CSNAP (A1), Experiment #2 right / intensities as fold of C-CSNAP (A1), Experiment #3 left / intensities as fold of C-CSNAP (A1), Experiment #3 right: rCSN^WT peptide array; for intensities as fold of C-CSNAP (A1), Experiment #1 left: replicate: Experiment #1, left array; for intensities as fold of C-CSNAP (A1), Experiment #1 right: replicate: Experiment #1, right array; for intensities as fold of C-CSNAP (A1), Experiment #2 left: replicate: Experiment #2, left array; for intensities as fold of C-CSNAP (A1), Experiment #2 right: replicate: Experiment #2, right array; for intensities as fold of C-CSNAP (A1), Experiment #3 left: replicate: Experiment #3, left array; for intensities as fold of C-CSNAP (A1), Experiment #3 right: replicate: Experiment #3, right array; for Average fold change: peptide array with rCSN, average of 3 experiments, left and right (n = 6), fold of C-CSNAP (A1);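 as to all read-outs here: densitometric signal of CSN bound to each synthesized peptide spot, with an antibody-only array lacking CSN run to exclude non-specific binding, higher values meaning stronger binding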
Description: To generate an optimized C-CSNAP peptide, we used the peptide array methodology. The array was designed to screen for the optimal peptide length, sequence, and stability (Fig 3A). A recombinant CSN complex was expressed, purified, and screened for binding to the peptide array by using an anti-CSN3 antibody. To rule out non-specific binding of the probing antibody, a control experiment was carried out without the addition of the CSN complex (Fig 3A right panel).
C-CSNAP peptide and its derivatives were synthesized on a microarray. The array was blocked and incubated with or without the COP9 signalosome complex (CSN) and probed using an anti-CSN3 antibody and HRP-conjugated secondary antibody. To assess non-specific binding of the antibodies to the array, anti-CSN3 and anti-GAR–HRP were used without the addition of the CSN. Signal intensity of each spot was measured and normalized to the intensity of the spot of C-CSNAP (A1). Measured values for each spot were averaged from six arrays and plotted with SEM. […] (A) A representative image of the peptide array (left) and the background (right). (B) Elongation of the C-terminal 16 amino acids (green) with one residue at a time based on the full-length sequence. […] (F) Single D-amino acid substitution at various positions.
(§1) Intensity values are normalized to the intensity of the 16AA C-CSNAP peptide (A1) on each array from three independent experiments in duplicates, and averages from the six replicates are calculated with SEM.
(§2) Optimization of C-CSNAP sequence for enhanced binding to recombinant CSN^ΔCSNAP was screened by printing the modified sequences of CSNAP or C-CSNAP (Phe to Trp, Asp to Glu, Ala screen, D-amino acid screen, N-α-methylation, and Aib incorporation on INTAVIS Celluspots array [2 × 384spots]). The array was blocked with 5% skim milk in TBS-0.5% Tween 20 (TBS-T) for 4 h at room temperature, washed three times in TBS-T, and then incubated with 0.5 μM CSN^ΔCSNAP in 5% milk–TBS-T. Bound CSN^ΔCSNAP was visualized by incubating with anti-CSN3 (ab79698) antibody (1:10,000, overnight) and goat-anti-rabbit-HRP secondary antibody (1:10,000, 1 h).

[2] = test system: CSN^ΔCSNAP complex; assay: Peptide array screen of C-CSNAP peptides with rCSN^ΔCSNAP; format: binding; details: average of 5 experiments;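 also: Array-printed peptides incubated with 0.5 µM CSN^ΔCSNAP, bound complex detected by anti-CSN3 antibody plus HRP-linked secondary, spot intensity expressed relative to the parent reference peptide spot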
Description: Peptide array screen of modified C-CSNAP peptides. C-CSNAP peptide and its derivatives were printed on a microarray. The array was blocked and incubated with or without the CSN∆CSNAP complex and probed using an anti-CSN3 antibody and HRP-conjugated secondary antibody. To assess non-specific binding of the antibodies to the array, anti-CSN3 and anti-GAR-HRP were used without the addition of the COP9 signalosome complex (CSN). Signal intensity of each spot was measured and normalized to the intensity of the spot of C-CSNAP (A1). Measured values for each spot were averaged from six arrays and plotted with standard errors SEM.
as §1, §2

[3] = peptide array with rCSN^ΔCSNAP, left and right (n = 10), fold of C-CSNAP (A1)
[4] = peptide array, rCSN^ΔCSNAP, left and right spots

Substance	Average fold change, intensities as fold of C-CSNAP (A1) [1]	Average fold change [2, 4]	further results
AANEKAVHADFFNDFEDLFDDDDIQ [Position A10, CSNAP residues 33-57]	1.0826 fold of C-CSNAP (A1)	–	Average fold change [2, 3]: 0.9871 fold
ADFFNDFEDLFDDDDIQ [A 2, CSNAP residues 41-57]	0.9705 fold of C-CSNAP (A1)	–	Average fold change [2, 3]: 0.9058 fold
DAFNDFEDLFDDDDIQ [Position B21, C-CSNAP, Ala substitution F43A]	0.8509 fold of C-CSNAP (A1)	–	Average fold change [2, 3]: 1.1048 fold
DFF-Aib-DFED-Aib-FDDDI-Aib-Q [Position H16, C-CSNAP with Aib incorporation (45,50,56)]	0.4930 fold of C-CSNAP (A1)	–	intensities as fold of C-CSNAP (A1), Experiment #1 left [1]: 0.3868 fold of C-CSNAP (A1); intensities as fold of C-CSNAP (A1), Experiment #1 right [1]: 0.3074 fold of C-CSNAP (A1); intensities as fold of C-CSNAP (A1), Experiment #2 left [1]: 0.3253 fold of C-CSNAP (A1); intensities as fold of C-CSNAP (A1), Experiment #2 right [1]: 0.4113 fold of C-CSNAP (A1); intensities as fold of C-CSNAP (A1), Experiment #3 left [1]: 0.4290 fold of C-CSNAP (A1); intensities as fold of C-CSNAP (A1), Experiment #3 right [1]: 1.0982 fold of C-CSNAP (A1); Average fold change, intensities as fold of C-CSNAP (A1) [2, 4]: 0.8483 fold
DFFN-Aib-FEDLF-Aib-DDDI-Aib [Position H17, C-CSNAP with Aib incorporation (46,52,57)]	0.3449 fold of C-CSNAP (A1)	–	intensities as fold of C-CSNAP (A1), Experiment #1 left [1]: 0.3158 fold of C-CSNAP (A1); intensities as fold of C-CSNAP (A1), Experiment #1 right [1]: 0.2689 fold of C-CSNAP (A1); intensities as fold of C-CSNAP (A1), Experiment #2 left [1]: 0.1472 fold of C-CSNAP (A1); intensities as fold of C-CSNAP (A1), Experiment #2 right [1]: 0.2740 fold of C-CSNAP (A1); intensities as fold of C-CSNAP (A1), Experiment #3 left [1]: 0.2292 fold of C-CSNAP (A1); intensities as fold of C-CSNAP (A1), Experiment #3 right [1]: 0.8343 fold of C-CSNAP (A1); Average fold change, intensities as fold of C-CSNAP (A1) [2, 4]: 0.7091 fold
DFFN-Aib-FEDLF-Aib-DDDIQ-Aib [Position H15, C-CSNAP with Aib incorporation (46,52,58)]	0.4542 fold of C-CSNAP (A1)	–	intensities as fold of C-CSNAP (A1), Experiment #1 left [1]: 0.3458 fold of C-CSNAP (A1); intensities as fold of C-CSNAP (A1), Experiment #1 right [1]: 0.3290 fold of C-CSNAP (A1); intensities as fold of C-CSNAP (A1), Experiment #2 left [1]: 0.2291 fold of C-CSNAP (A1); intensities as fold of C-CSNAP (A1), Experiment #2 right [1]: 0.4652 fold of C-CSNAP (A1); intensities as fold of C-CSNAP (A1), Experiment #3 left [1]: 0.2799 fold of C-CSNAP (A1); intensities as fold of C-CSNAP (A1), Experiment #3 right [1]: 1.0762 fold of C-CSNAP (A1); Average fold change, intensities as fold of C-CSNAP (A1) [2, 4]: 0.5199 fold
DFFNDFEDAFDDDDIQ [C 4, C-CSNAP, Ala substitution L50A]	0.5335 fold of C-CSNAP (A1)	–	Average fold change [2, 3]: 0.8879 fold
DFFNDFEDLFDDDDAQ [Position C10, C-CSNAP, Ala substitution I56A]	1.1392 fold of C-CSNAP (A1)	–	Average fold change [2, 3]: 1.2151 fold
DFFNDFEDLFDDDEIQ [D 9, C-CSNAP, Asp to Glu substitution D55E]	1.0265 fold of C-CSNAP (A1)	1.0696 fold of C-CSNAP (A1)	–
DFFNDFEDLFDDEDIQ [D 8, C-CSNAP, Asp to Glu substitution D54E]	0.9836 fold of C-CSNAP (A1)	1.1238 fold of C-CSNAP (A1)	–
DFFNDFEDLFDD[Aib]DIQ[Aib] [Position H18, C-CSNAP with Aib incorporation (54,58)]	0.2987 fold of C-CSNAP (A1)	–	intensities as fold of C-CSNAP (A1), Experiment #1 left [1]: 0.3071 fold of C-CSNAP (A1); intensities as fold of C-CSNAP (A1), Experiment #1 right [1]: 0.2334 fold of C-CSNAP (A1); intensities as fold of C-CSNAP (A1), Experiment #2 left [1]: 0.1973 fold of C-CSNAP (A1); intensities as fold of C-CSNAP (A1), Experiment #2 right [1]: 0.2444 fold of C-CSNAP (A1); intensities as fold of C-CSNAP (A1), Experiment #3 left [1]: 0.2003 fold of C-CSNAP (A1); intensities as fold of C-CSNAP (A1), Experiment #3 right [1]: 0.6096 fold of C-CSNAP (A1); Average fold change, intensities as fold of C-CSNAP (A1) [2, 4]: 1.0167 fold
DFFNDFEDLFDEDDIQ [D 7, C-CSNAP, Asp to Glu substitution D53E]	0.9008 fold of C-CSNAP (A1)	1.1500 fold of C-CSNAP (A1)	–
DFFNDFEDLFEDDDIQ [D 6, C-CSNAP, Asp to Glu substitution D52E]	0.9809 fold of C-CSNAP (A1)	1.1581 fold of C-CSNAP (A1)	–
DFFNDFEDLFEDDEIQ [E 3, C-CSNAP, Asp to Glu substitution D52,55E]	0.8879 fold of C-CSNAP (A1)	0.8137 fold of C-CSNAP (A1)	–
DFFNDFEDLFEDEDIQ [E 2, C-CSNAP, Asp to Glu substitution D52,54E]	0.8694 fold of C-CSNAP (A1)	0.9955 fold of C-CSNAP (A1)	–
DFFNDFEDLFEDEEIQ [D52,53,56E]	–	1.1721 fold of C-CSNAP (A1)	Average fold change [1]: 0.6027 fold
DFFNDFEDLFEEDDIQ [E 1, C-CSNAP, Asp to Glu substitution D52,53E]	0.6914 fold of C-CSNAP (A1)	1.1244 fold of C-CSNAP (A1)	–

Substance	Average fold change, intensities as fold of C-CSNAP (A1) [1]	Average fold change [2, 4]	further results
DFFNDFEDLFEEDEIQ [D52,53,55E]	–	1.3267 fold of C-CSNAP (A1)	Average fold change [1]: 0.6917 fold
DFFNDFEDLFEEEDIQ [D52,53,54E]	–	1.1046 fold of C-CSNAP (A1)	–
DFFNDFEDLFEEEEIQ [D52,53,54,55E]	–	1.3020 fold of C-CSNAP (A1)	Average fold change [1]: 0.7255 fold
DFFNDFEDLWDDDDIQ [Position C15, C-CSNAP, Phe to Trp substitution F51W]	0.8159 fold of C-CSNAP (A1)	1.0302 fold of C-CSNAP (A1)	–
DFFNDFEELFDDDDIQ [D 5, C-CSNAP, Asp to Glu substitution D49E]	0.8086 fold of C-CSNAP (A1)	0.9235 fold of C-CSNAP (A1)	–
DFFNDFEELFDDDEIQ [Position D24, C-CSNAP, Asp to Glu substitution D49,55E]	0.5347 fold of C-CSNAP (A1)	1.2175 fold of C-CSNAP (A1)	–
DFFNDFEELFDDEDIQ [Position D23, C-CSNAP, Asp to Glu substitution D49,54E]	0.5825 fold of C-CSNAP (A1)	1.0923 fold of C-CSNAP (A1)	–
DFFNDFEELFDEDDIQ [Position D22, C-CSNAP, Asp to Glu substitution D49,53E]	0.6642 fold of C-CSNAP (A1)	1.3252 fold of C-CSNAP (A1)	–
DFFNDFEELFEDDDIQ [Position D21, C-CSNAP, Asp to Glu substitution D49,52E]	0.6335 fold of C-CSNAP (A1)	1.3626 fold of C-CSNAP (A1)	–
DFFNDFEELFEDDEIQ [Position E19, C-CSNAP, Asp to Glu substitution D49,52,55E]	0.6448 fold of C-CSNAP (A1)	1.0909 fold of C-CSNAP (A1)	–
DFFNDFEELFEDEDIQ [Position E18, C-CSNAP, Asp to Glu substitution D49,52,54E]	0.6310 fold of C-CSNAP (A1)	0.9681 fold of C-CSNAP (A1)	–
DFFNDFEELFEEDDIQ [Position E17, C-CSNAP, Asp to Glu substitution D49,52,53E]	0.6206 fold of C-CSNAP (A1)	1.2373 fold of C-CSNAP (A1)	–
DFFNDFEELFEEDEIQ [D49,52,53,55E]	–	1.1749 fold of C-CSNAP (A1)	Average fold change [1]: 0.6996 fold
DFFNDFEELFEEEDIQ [D49,52,53,54E]	–	0.9844 fold of C-CSNAP (A1)	Average fold change [1]: 0.6224 fold
DFFNDFEELFEEEEIQ [D49,52,53,54,55E]	–	1.1796 fold of C-CSNAP (A1)	Average fold change [1]: 0.6658 fold
DFFNDWEDLFDDDDIQ [Position C14, C-CSNAP, Phe to Trp substitution F47W]	0.9440 fold of C-CSNAP (A1)	1.1204 fold of C-CSNAP (A1)	–
